Results published in PubChem BioAssay AID330 (DTP/NCI, 2004).
“And” between values parts separate entries of the source, which are not always exact repeats. Equal entries are not always repeated. Inconclusive results and toxic doses are left out. The calls were made as follows: active = survival T/C of 150% or more; inactive = T/C below 125% in these data.

Tested on: P388 leukemia ip, CD2F1 mice, survival T/C
Test: NCI In Vivo Anticancer Drug Screen. Data for tumor model P388 Leukemia (intraperitoneal) in CD2F1 (CDF1) mice
Details: endpoint: median survival time, higher = longer survival
Summary of the method: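 Mice carrying the transplanted tumor received test compound or vehicle. Survival was recorded in each group, and the value is the treated-group measurement divided by that of the vehicle-treated control group.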

[1] = dose: 100.0 mg/kg/injection, schedule: Q04DX003 (ip), vehicle: Klucel (hydroxypropylcellulose) (HPC)
[2] = dose: 200.0 mg/kg/injection, schedule: Q04DX003 (ip), vehicle: Klucel (hydroxypropylcellulose) (HPC)
[3] = dose: 50.0 mg/kg/injection, schedule: Q01DX005 (ip), vehicle: saline with Tween-80
[4] = dose: 100.0 mg/kg/injection, schedule: Q01DX005 (ip), vehicle: saline with Tween-80

Measured: T/C

Nc1ncnc2c1ncn2C1OC(CO)C(O)C1O (centres undefined)
inactive: dose: 1.25 mg/kg/injection, schedule: Q03HX016 (ip), vehicle: saline 113 % of control | dose: 1.56 mg/kg/injection, schedule: Q01DX009 (ip), vehicle: saline 116 % of control | dose: 2.5 mg/kg/injection, schedule: Q03HX016 (ip), vehicle: saline 122 % of control | dose: 3.12 mg/kg/injection, schedule: Q01DX009 (ip), vehicle: saline 122 % of control | dose: 6.25 mg/kg/injection, schedule: Q01DX009 (ip), vehicle: saline 119 % of control and 104 % of control | dose: 9.0 mg/kg/injection, schedule: Q01DX009 (ip), vehicle: saline with Tween-80 114 % of control | dose: 12.5 mg/kg/injection, schedule: Q01DX009 (ip), vehicle: saline with Tween-80 118 % of control | dose: 12.5 mg/kg/injection, schedule: Q01DX009 (ip), vehicle: saline 103 % of control | dose: 12.5 mg/kg/injection, schedule: Q03HX016 (ip), vehicle: Klucel (hydroxypropylcellulose) (HPC) 110 % of control | dose: 14.0 mg/kg/injection, schedule: Q01DX009 (ip), vehicle: saline with Tween-80 120 % of control | dose: 20.0 mg/kg/injection, schedule: Q01DX009 (ip), vehicle: saline 103 % of control | dose: 20.0 mg/kg/injection, schedule: Q03HX016 (ip), vehicle: saline 122 % of control | dose: 25.0 mg/kg/injection, schedule: Q01DX009 (ip), vehicle: saline 103 % of control | dose: 25.0 mg/kg/injection, schedule: Q03HX016 (ip), vehicle: Klucel (hydroxypropylcellulose) (HPC) 120 % of control | dose: 25.0 mg/kg/injection, schedule: Q04DX003 (ip), vehicle: Klucel (hydroxypropylcellulose) (HPC) 105 % of control | dose: 25.0 mg/kg/injection, schedule: Q04DX003 (ip), vehicle: saline sonified 118 % of control | dose: 32.0 mg/kg/injection, schedule: Q01DX009 (ip), vehicle: Klucel (hydroxypropylcellulose) (HPC) 100 % of control and 102 % of control | dose: 40.0 mg/kg/injection, schedule: Q01DX009 (ip), vehicle: saline 115 % of control and 118 % of control | dose: 50.0 mg/kg/injection, schedule: Q01DX009 (ip), vehicle: saline sonified 123 % of control | dose: 50.0 mg/kg/injection, schedule: Q01DX009 (ip), vehicle: saline 99 % of control | dose: 50.0 mg/kg/injection, schedule: Q04DX003 (ip), vehicle: Klucel (hydroxypropylcellulose) (HPC) 97 % of control | dose: 50.0 mg/kg/injection, schedule: Q04DX003 (ip), vehicle: saline sonified 122 % of control | dose: 64.0 mg/kg/injection, schedule: Q01DX009 (ip), vehicle: Klucel (hydroxypropylcellulose) (HPC) 102 % of control and 97 % of control | dose: 75.0 mg/kg/injection, schedule: Q01DX009 (ip), vehicle: saline sonified 95 % of control | dose: 75.0 mg/kg/injection, schedule: Q01DX009 (ip), vehicle: saline with Tween-80 72 % of control | dose: 78.6 mg/kg/injection, schedule: Q01DX005 (ip), vehicle: water 106 % of control | dose: 78.6 mg/kg/injection, schedule: Q01DX009 (ip), vehicle: water 100 % of control | dose: 80.0 mg/kg/injection, schedule: Q01DX009 (ip), vehicle: saline 122 % of control | dose: 100.0 mg/kg/injection, schedule: Q01DX009 (ip), vehicle: saline 122 % of control and 73 % of control | [1] 96 % of control | dose: 100.0 mg/kg/injection, schedule: Q04DX003 (ip), vehicle: saline sonified 110 % of control | dose: 118.0 mg/kg/injection, schedule: Q01DX005 (ip), vehicle: water 99 % of control | dose: 118.0 mg/kg/injection, schedule: Q01DX009 (ip), vehicle: water 99 % of control | dose: 128.0 mg/kg/injection, schedule: Q01DX009 (ip), vehicle: Klucel (hydroxypropylcellulose) (HPC) 101 % of control and 93 % of control | dose: 177.0 mg/kg/injection, schedule: Q01DX005 (ip), vehicle: water 99 % of control | dose: 177.0 mg/kg/injection, schedule: Q01DX009 (ip), vehicle: water 111 % of control | dose: 200.0 mg/kg/injection, schedule: Q01DX009 (ip), vehicle: saline with Tween-80 115 % of control | [2] 98 % of control | dose: 200.0 mg/kg/injection, schedule: Q04DX003 (ip), vehicle: saline sonified 110 % of control | dose: 256.0 mg/kg/injection, schedule: Q01DX009 (ip), vehicle: Klucel (hydroxypropylcellulose) (HPC) 99 % of control and 88 % of control | dose: 264.0 mg/kg/injection, schedule: Q04DX003 (ip), vehicle: saline with Tween-80 121 % of control | dose: 266.0 mg/kg/injection, schedule: Q01DX005 (ip), vehicle: water 115 % of control | dose: 266.0 mg/kg/injection, schedule: Q01DX009 (ip), vehicle: saline with Tween-80 121 % of control | dose: 266.0 mg/kg/injection, schedule: Q01DX009 (ip), vehicle: water 113 % of control | dose: 400.0 mg/kg/injection, schedule: Q01DX005 (ip), vehicle: water 108 % of control | dose: 400.0 mg/kg/injection, schedule: Q01DX009 (ip), vehicle: saline with Tween-80 121 % of control | dose: 400.0 mg/kg/injection, schedule: Q01DX009 (ip), vehicle: saline 122 % of control | dose: 400.0 mg/kg/injection, schedule: Q01DX009 (ip), vehicle: water 117 % of control | dose: 400.0 mg/kg/injection, schedule: Q04DX003 (ip), vehicle: saline with Tween-80 117 % of control | dose: 512.0 mg/kg/injection, schedule: Q01DX009 (ip), vehicle: Klucel (hydroxypropylcellulose) (HPC) 101 % of control and 91 % of control | dose: 600.0 mg/kg/injection, schedule: Q01DX009 (ip), vehicle: saline sonified 86 % of control | dose: 600.0 mg/kg/injection, schedule: Q01DX009 (ip), vehicle: saline with Tween-80 111 % of control | dose: 900.0 mg/kg/injection, schedule: Q01DX009 (ip), vehicle: saline with Tween-80 94 % of control | dose: 1000.0 mg/kg/injection, schedule: Q01DX009 (oral), vehicle: saline with Tween-80 101 % of control | dose: 1.3 micrograms/kg/injection, schedule: Q#A X Z (ip), vehicle: water 91 % of control | dose: 1500.0 mg/kg/injection, schedule: Q01DX009 (oral), vehicle: saline with Tween-80 104 % of control | dose: 2000.0 mg/kg/injection, schedule: Q01DX009 (oral), vehicle: saline with Tween-80 100 % of control | dose: 13.4 micrograms/kg/injection, schedule: Q#A X Z (ip), vehicle: water 98 % of control | dose: 134.0 micrograms/kg/injection, schedule: Q#A X Z (ip), vehicle: water 98 % of control | dose: 1340.0 micrograms/kg/injection, schedule: Q#A X Z (ip), vehicle: water 100 % of control
active: dose: 200.0 mg/kg/injection, schedule: Q03HX016 (ip), vehicle: Klucel (hydroxypropylcellulose) (HPC) 154 % of control | dose: 400.0 mg/kg/injection, schedule: Q03HX016 (ip), vehicle: Klucel (hydroxypropylcellulose) (HPC) 183 % of control

CCc1ccccc1C1(Br)C(=O)c2ccccc2C1=O
inactive: dose: 100.0 mg/kg/injection, schedule: Q04DX002 (ip), vehicle: saline 102 % of control | dose: 200.0 mg/kg/injection, schedule: Q04DX002 (ip), vehicle: saline 100 % of control | dose: 400.0 mg/kg/injection, schedule: Q04DX002 (ip), vehicle: saline 101 % of control

c1ccc(-c2cc(Nc3ccc4c(c3)OCO4)c3cc4c(cc3n2)OCO4)cc1
inactive: dose: 50.0 mg/kg/injection, schedule: Q01DX005 (ip), vehicle: Klucel (hydroxypropylcellulose) (HPC) 101 % of control | dose: 100.0 mg/kg/injection, schedule: Q01DX005 (ip), vehicle: Klucel (hydroxypropylcellulose) (HPC) 101 % of control | dose: 200.0 mg/kg/injection, schedule: Q01DX005 (ip), vehicle: Klucel (hydroxypropylcellulose) (HPC) 97 % of control

Cc1ccc(/C=N/n2c(-c3ccccc3Cl)nc3ccccc3c2=O)cc1
inactive: [3] 96 % of control | [4] 93 % of control | dose: 200.0 mg/kg/injection, schedule: Q01DX005 (ip), vehicle: saline with Tween-80 91 % of control

CC1=NN(C(=O)c2ccc(Cl)cc2)C(=O)C1N=Nc1ccc(S(=O)(=O)Nc2ccccn2)cc1 (centres undefined)
inactive: [3] 102 % of control | [4] 94 % of control

CC(=O)Oc1ccccc1O
inactive: dose: 25.0 mg/kg/injection, schedule: Q01DX009 (ip), vehicle: saline + Tween-80 + alcohol 106 % of control | dose: 50.0 mg/kg/injection, schedule: Q01DX009 (ip), vehicle: saline + Tween-80 + alcohol 101 % of control and 105 % of control and 116 % of control | dose: 100.0 mg/kg/injection, schedule: Q01DX009 (ip), vehicle: saline + Tween-80 + alcohol 109 % of control and 115 % of control

Cn1cc(/C=C/[N+](=O)[O-])c2ccccc21
inactive: [1] 105 % of control | [2] 99 % of control | dose: 400.0 mg/kg/injection, schedule: Q04DX003 (ip), vehicle: Klucel (hydroxypropylcellulose) (HPC) 100 % of control
